Source: US8420817B2, “Tricyclic N-heteroaryl-carboxamide derivatives, preparation and therapeutic use thereof” (Sanofi, priority 2007, dated 2013)

Assays:
TRPV1 receptor = target: T1, TRPV1 receptor (Rattus norvegicus, UniProt O35433); assay: Inhibition of the current induced by capsaicin on rat DRGs (whole-cell patch-clamp); assay type: cell-based; conditions: DRG neuron; compound at 10 nM; inhibition of the control capsaicin response; rat DRG neurons
T1 construct: The neurons of the DRG naturally express the TRPV1 receptor; endogenous in cells; host or cells: primary culture of newborn rat dorsal root ganglion neurons
Protocol: Test for Inhibition of the Current Induced by Capsaicin on Rat DRGs
• Primary culture of rat dorsal root ganglion (DRG) cells:
The neurons of the DRG naturally express the TRPV1 receptor.
Newborn rat DRG primary cultures are prepared from 1-day-old rat pups. Briefly, after dissection, the ganglia are trypsinized and the cells are mechanically dissociated by controlled trituration. The cells are resuspended in an Eagle's basal culture medium containing 10% of fetal calf serum, 25 mM KCl, 2 mM glutamine, 100 μg/ml gentamicin and 50 ng/ml of NGF, and then deposited onto laminin-coated glass cover slips (0.25×10^6 cells per cover slip) which are then placed in 12-well Corning dishes. The cells are incubated at 37° C. in a humidified atmosphere containing 5% CO2 and 95% air. […]
The measuring chambers (volume 800 μl) containing the cell preparation are placed on the platform of an inverted microscope (Olympus IMT2) equipped with Hoffman optics (Modulation Contrast, New York), and observed at the magnification of 400×. […] The overall currents (membrane potential fixed at −60 mV) are recorded with an Axopatch 1D amplifier (Axon Instruments, Foster City, Calif.), connected to a PC controlled by Pclamp8 software (Axon Instruments). The current traces are recorded on paper and simultaneously digitized (sampling frequency 15 to […]) and acquired on the hard drive of the PC. […]

TRPV1 receptors = target: T2, TRPV1 receptors (Mus musculus, UniProt Q704Y3); assay: Pain induced by intraplantar administration of capsaicin in mice; assay type: in vivo; conditions: 30 mg/kg orally 120 minutes before intraplantar capsaicin, n=10
T2 construct: from tissue; host or cells: living mice, hind paw (in vivo behavioural test)
Protocol: Pain Induced by Intraplantar Administration of Capsaicin in Mice
The intraplantar injection of capsaicin in mice rapidly produces a short-duration nociceptif behavior which is manifested in instances of licking, chewing and flexing of the treated paw. These nociceptive responses are probably linked to activation of the local TRPV1 receptors by the capsaicin.
(E)-capsaicin is initially diluted at 3 mg/ml in DMSO, then diluted again, for its final use, at 1.5 μg/20 μl in physiological saline. Administration of solvent has no effect at all on the behavior of the mouse. The capsaicin is injected into one of the hind paws of the animal, at the level of the upper face.
The compounds to be tested are administered orally 120 minutes prior to injection of capsaicin. […] The nociceptif behavior of the animals is then immediately evaluated by the person carrying out the experiment, and the duration of the behavioral manifestations induced by the capsaicin is recorded with a stop watch for a time of 2 minutes (licking and chewing, total or partial flexing of the injected paw).
For each compound an inhibition is determined which corresponds to the mean of the nociceptive responses induced by the capsaicin in response to a dose of test product (expressed in mg/kg) administered orally, on a sample of a specific number of mice (n).

T1 sequence (O35433 whole entry): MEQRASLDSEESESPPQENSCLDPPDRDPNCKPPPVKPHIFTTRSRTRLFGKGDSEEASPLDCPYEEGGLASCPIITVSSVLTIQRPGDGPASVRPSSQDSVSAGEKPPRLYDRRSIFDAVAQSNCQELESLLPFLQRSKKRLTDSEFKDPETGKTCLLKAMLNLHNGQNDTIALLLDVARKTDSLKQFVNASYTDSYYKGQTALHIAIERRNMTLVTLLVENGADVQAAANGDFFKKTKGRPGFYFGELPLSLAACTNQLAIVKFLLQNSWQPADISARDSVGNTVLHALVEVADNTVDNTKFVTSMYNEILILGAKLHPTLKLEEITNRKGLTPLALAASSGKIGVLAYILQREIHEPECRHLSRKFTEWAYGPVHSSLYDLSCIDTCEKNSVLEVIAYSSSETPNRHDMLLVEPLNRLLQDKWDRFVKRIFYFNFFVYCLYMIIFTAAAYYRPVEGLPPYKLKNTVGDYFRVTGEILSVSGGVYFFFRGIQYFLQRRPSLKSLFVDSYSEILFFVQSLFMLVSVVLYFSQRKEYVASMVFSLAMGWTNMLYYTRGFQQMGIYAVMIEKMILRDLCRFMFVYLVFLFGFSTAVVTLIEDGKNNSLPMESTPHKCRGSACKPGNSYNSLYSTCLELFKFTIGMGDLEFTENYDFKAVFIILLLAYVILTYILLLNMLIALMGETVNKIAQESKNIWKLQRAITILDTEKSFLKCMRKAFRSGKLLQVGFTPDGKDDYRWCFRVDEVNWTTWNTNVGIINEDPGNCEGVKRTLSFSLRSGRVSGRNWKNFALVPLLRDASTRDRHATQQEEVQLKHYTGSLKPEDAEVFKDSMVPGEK
T2 sequence (Q704Y3 whole entry): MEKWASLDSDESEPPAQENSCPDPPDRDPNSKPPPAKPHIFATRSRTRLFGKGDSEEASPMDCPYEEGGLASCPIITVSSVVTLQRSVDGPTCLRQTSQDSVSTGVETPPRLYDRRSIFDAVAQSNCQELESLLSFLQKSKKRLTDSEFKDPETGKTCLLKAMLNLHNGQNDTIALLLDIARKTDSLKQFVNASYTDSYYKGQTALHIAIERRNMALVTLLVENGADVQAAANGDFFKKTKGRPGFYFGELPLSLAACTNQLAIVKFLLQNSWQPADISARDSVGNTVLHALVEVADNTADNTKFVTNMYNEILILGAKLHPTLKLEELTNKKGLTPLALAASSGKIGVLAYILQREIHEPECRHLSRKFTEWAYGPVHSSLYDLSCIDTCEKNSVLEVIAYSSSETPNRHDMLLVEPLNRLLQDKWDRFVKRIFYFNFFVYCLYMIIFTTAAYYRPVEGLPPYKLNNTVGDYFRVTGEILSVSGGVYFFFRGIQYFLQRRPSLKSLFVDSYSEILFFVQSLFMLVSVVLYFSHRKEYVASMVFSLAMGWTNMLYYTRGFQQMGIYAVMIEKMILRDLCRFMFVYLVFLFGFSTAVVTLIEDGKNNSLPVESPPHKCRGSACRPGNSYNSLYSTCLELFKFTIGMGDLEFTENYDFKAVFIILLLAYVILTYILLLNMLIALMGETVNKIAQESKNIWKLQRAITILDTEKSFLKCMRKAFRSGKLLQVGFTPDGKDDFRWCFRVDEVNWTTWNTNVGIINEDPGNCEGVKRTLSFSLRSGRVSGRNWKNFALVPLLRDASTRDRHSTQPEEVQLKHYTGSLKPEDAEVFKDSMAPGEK

Row | Compound | melting point | inhibition at 0.01 µM (TRPV1 receptor) | % inhibition of nociceptive responses induced by capsaicin (TRPV1 receptors)
1 | O=C(Nc1cnc2c(c1)nc1n2CCC1)c1cc2cc(F)ccc2n1Cc1cccc(F)c1 [Compound 1, N-(7,8-Dihydro-6H-pyrrolo[2′,1′:2,3]imidazo[4,5-b]pyridin-3-yl)-5-fluoro-1-(3-fluorobenzyl)-1H-indole-2-carboxamide] | 227 to 229 °C | 69% | –
2 | O=C(Nc1cnc2c(c1)nc1n2CCC1O)c1cc2cc(C(F)(F)F)ccc2n1Cc1cccc(F)c1 (racemic) [Compound 29, N-(6-Hydroxy-7,8-dihydro-6H-pyrrolo[2′,1′:2,3]imidazo[4,5-b]pyridin-3-yl)-5-trifluoromethyl-1-(3-fluorobenzyl)-1H-indole-2-carboxamide] | 254 to 255 °C | – | 63% (+/−11%)
